Test results as given in US11365194B2, “Analgesic drug using PAC1 receptor antagonistic drug” (KAGOSHIMA UNIVERSITY, priority 2017, dated 2022).

What was measured:
[1] = test system: spontaneous pain-like behavior induced by PACAP intrathecal administration; experiment: Spontaneous pain-like behavior induced by PACAP intrathecal administration; assay type: in vivo, mouse; settings: simultaneous i.t. with PACAP (100 pmol), counted for 30 minutes
Procedure: When PACAP (100 pmol/5 L) is intrathecally administered to a mouse in a single dose (single i.t. injection), spontaneous pain-like behavior in which the mouse licks or bites the rear half of the body occurs about 5 minutes after the administration (and continues for several hours) (Ohnou et al. J. Pharmacol. Sci. 130, 194-203, 2016). […] Male ddY mice (6 to 12 weeks old) were used, and the behaviors were taken on video. The number of times of spontaneous pain-like behaviors for 30 minutes after the administration was counted.

[2] = biological target: T1, mouse VPAC1 receptor-expressing CHO cell (VPAC1/CHO cell) (Mus musculus, UniProt P97751); experiment: CREB phosphorylation by PACAP stimulus, Western blot, VPAC1/CHO cell; assay type: cell-based; settings: compound 10 μM to 10 nM
T1 construct: expressed in transfected cells; host or cells: CHO cells
T1 sequence (P97751 31-459): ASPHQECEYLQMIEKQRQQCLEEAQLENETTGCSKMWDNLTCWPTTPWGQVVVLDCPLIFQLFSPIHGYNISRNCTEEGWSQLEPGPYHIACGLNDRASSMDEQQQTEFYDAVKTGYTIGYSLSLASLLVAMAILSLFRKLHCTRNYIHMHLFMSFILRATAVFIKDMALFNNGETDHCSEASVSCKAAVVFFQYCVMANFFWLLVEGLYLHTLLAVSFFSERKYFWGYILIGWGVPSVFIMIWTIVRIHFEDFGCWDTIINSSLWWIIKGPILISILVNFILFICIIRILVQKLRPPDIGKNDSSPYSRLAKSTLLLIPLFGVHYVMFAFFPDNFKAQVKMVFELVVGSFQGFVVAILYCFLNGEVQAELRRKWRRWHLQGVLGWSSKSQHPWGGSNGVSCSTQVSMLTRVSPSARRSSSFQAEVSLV
Procedure: The effect of each compound on the phosphorylation of CREB (cAMP-responsive element-binding protein) produced by a PACAP stimulus was examined by Western blot analysis using an anti-phosphorylated CREB (pCREB) antibody with a mouse PAC receptor-expressing CHO cell (PAC1/CHO cell) and a mouse VPAC1 receptor-expressing CHO cell (VPAC1/CHO cell).
Specifically, treatment with a compound (PA-8, PA-9, compounds 2j, 20 and 3d) at 10 μM to 10 nM or a solvent therefor (VEH: 0.1% DMSO-containing phosphate buffer solution) was performed for 30 minutes, 1 nM PACAP was then added, and protein was recovered within 30 minutes after a PACAP stimulus.

[3] = test system: cold allodynia induced by oxaliplatin; experiment: Cold allodynia induced by oxaliplatin, drug on fourth day after oxaliplatin (acetone test); assay type: in vivo, mouse; settings: 10 mg/kg, single oral administration, fourth day after oxaliplatin
Procedure: Oxaliplatin was dissolved in 5% glucose-containing saline and intraperitoneally administered at a dose of 2 mg/kg. A drug was administered on the fourth day after oxaliplatin administration. Male ddY mice (6 to 12 weeks old) were used. The axis of ordinates is the duration of the behavior of licking and paw waving after the application of an acetone drop (10 L) to the footpad of a hind paw.

[4] = test system: mechanical allodynia induced by spinal nerve injury; experiment: Spinal nerve ligation (SNL) model, repeated intraperitoneal administration, mechanical allodynia; assay type: in vivo, mouse
Procedure: Male ddY mice (6 to 12 weeks old) were used, and the threshold to a mechanical stimulus was evaluated by the vonFrey test. Specifically, the 50% withdrawal reflex threshold (Threshold) was calculated in accordance with the method of Chaplan et al. (Chaplan et al., J. Neurosci. Meth. 53, 55-63, 1994). Each compound was dissolved in 99.7% DMSO, and then the resulting solution was diluted with an artificial cerebrospinal fluid for preparation (final concentration of DMSO was 0.2%).
Spinal nerve ligation (SNL) models in which the fourth lumbar cord spinal nerves of male ddY (6 to 12 weeks old) were ligated with silk thread were used. A solvent (VEH: 10% DMSO-containing saline). PA-8, the compound 2j or the compound 20 was intraperitoneally administered (30 mg/kg) 5 to 10 minutes before the ligation, and once a day for 7 days thereafter. The method of causing a mechanical stimulus is the same as that of Example 5, and data from the first day after the ligation (D1) are data 1 hour after the administration of VEH or the drugs.

Structure (SMILES): C=CCOc1ccc(C2CC(=O)Nc3nc(N)[nH]c(=O)c32)cc1OC (stereo not drawn) [PA-8, reference compound]
- suppression of PACAP-induced spontaneous pain-like behavior ([1]; 10 pmol): suppressed the PACAP response significantly
- suppression of PACAP-induced spontaneous pain-like behavior ([1]; 100 pmol): suppressed the PACAP response significantly
- suppression of CREB phosphorylation by PACAP (1 nM) [2]: did not suppress CREB phosphorylation by PACAP (1 nM)
- suppression of cold allodynia by oxaliplatin [3]: suppressed cold allodynia by oxaliplatin significantly over 4 to 5 hours
- suppression of the onset of mechanical allodynia ([4]; 30 mg/kg i.p. before ligation and once a day for 7 days): suppressed the onset of mechanical allodynia significantly
- mechanical threshold after discontinuation of administration ([4]; 30 mg/kg i.p., discontinued on the seventh day, versus VEH group): maintained the mechanical threshold highly significantly for at least 7 days thereafter
